Data as given in BigSolDB 2.1.

O=C(O)c1ccccc1
solubility (mole fraction) (in 2-(2-butoxyethoxy)ethanol, 296.15 K): 0.285
solubility (mole fraction) (in 2-(2-butoxyethoxy)ethanol, 305.15 K): 0.304
solubility (mole fraction) (in 2-(2-butoxyethoxy)ethanol, 309.65 K): 0.314
solubility (mole fraction) (in 2-(2-butoxyethoxy)ethanol, 311.15 K): 0.329
solubility (mole fraction) (in 2-(2-butoxyethoxy)ethanol, 317.15 K): 0.356
solubility (mole fraction) (in 2-(2-butoxyethoxy)ethanol, 321.15 K): 0.377
solubility (mole fraction) (in 2-(2-butoxyethoxy)ethanol, 326.15 K): 0.409
solubility (mole fraction) (in 2-(2-butoxyethoxy)ethanol, 329.65 K): 0.431
solubility (mole fraction) (in 2-(2-butoxyethoxy)ethanol, 334.15 K): 0.458
solubility (mole fraction) (in 2-(2-butoxyethoxy)ethanol, 336.15 K): 0.472
solubility (mole fraction) (in DMAc, 288.65 K): 0.469
solubility (mole fraction) (in DMAc, 293.35 K): 0.472
solubility (mole fraction) (in DMAc, 302.15 K): 0.475
solubility (mole fraction) (in DMAc, 308.65 K): 0.483
solubility (mole fraction) (in DMAc, 311.65 K): 0.489
solubility (mole fraction) (in DMAc, 315.15 K): 0.496
solubility (mole fraction) (in DMAc, 318.15 K): 0.505
solubility (mole fraction) (in DMAc, 320.65 K): 0.515
solubility (mole fraction) (in DMAc, 324.15 K): 0.529
solubility (mole fraction) (in DMAc, 329.15 K): 0.548
solubility (mole fraction) (in cyclohexanone, 286.15 K): 0.174
solubility (mole fraction) (in cyclohexanone, 288.95 K): 0.181
solubility (mole fraction) (in cyclohexanone, 294.15 K): 0.197
solubility (mole fraction) (in cyclohexanone, 299.15 K): 0.221
solubility (mole fraction) (in cyclohexanone, 303.65 K): 0.242
solubility (mole fraction) (in cyclohexanone, 307.95 K): 0.265
solubility (mole fraction) (in cyclohexanone, 316.15 K): 0.29
solubility (mole fraction) (in cyclohexanone, 319.15 K): 0.315
solubility (mole fraction) (in cyclohexanone, 322.15 K): 0.337
solubility (mole fraction) (in cyclohexanone, 326.15 K): 0.362
solubility (mole fraction) (in decalin, 296.15 K): 0.0147
solubility (mole fraction) (in decalin, 301.15 K): 0.0163
solubility (mole fraction) (in decalin, 306.25 K): 0.0196
solubility (mole fraction) (in decalin, 311.05 K): 0.0249
solubility (mole fraction) (in decalin, 318.05 K): 0.0355
solubility (mole fraction) (in decalin, 325.15 K): 0.0495
solubility (mole fraction) (in decalin, 329.25 K): 0.0589
solubility (mole fraction) (in decalin, 332.55 K): 0.0687
solubility (mole fraction) (in decalin, 337.05 K): 0.0887
solubility (mole fraction) (in decalin, 338.65 K): 0.103
solubility (mole fraction) (in diethylene glycol, 294.15 K): 0.0746
solubility (mole fraction) (in diethylene glycol, 298.15 K): 0.0995
solubility (mole fraction) (in diethylene glycol, 302.35 K): 0.131
solubility (mole fraction) (in diethylene glycol, 305.15 K): 0.148
solubility (mole fraction) (in diethylene glycol, 309.35 K): 0.183
solubility (mole fraction) (in diethylene glycol, 314.65 K): 0.225
solubility (mole fraction) (in diethylene glycol, 319.95 K): 0.269
solubility (mole fraction) (in diethylene glycol, 324.15 K): 0.3
solubility (mole fraction) (in diethylene glycol, 327.95 K): 0.336
solubility (mole fraction) (in diethylene glycol, 332.25 K): 0.367
solubility (mole fraction) (in ethylene glycol, 291.65 K): 0.0449
solubility (mole fraction) (in ethylene glycol, 298.15 K): 0.0539
solubility (mole fraction) (in ethylene glycol, 300.95 K): 0.0604
solubility (mole fraction) (in ethylene glycol, 303.15 K): 0.0689
solubility (mole fraction) (in ethylene glycol, 306.65 K): 0.0823
solubility (mole fraction) (in ethylene glycol, 310.15 K): 0.097
solubility (mole fraction) (in ethylene glycol, 314.15 K): 0.112
solubility (mole fraction) (in ethylene glycol, 320.15 K): 0.14
solubility (mole fraction) (in ethylene glycol, 324.15 K): 0.155
solubility (mole fraction) (in ethylene glycol, 330.65 K): 0.185
solubility (mole fraction) (in m-xylene, 296.15 K): 0.0649
solubility (mole fraction) (in m-xylene, 302.15 K): 0.0823
solubility (mole fraction) (in m-xylene, 306.15 K): 0.0928
solubility (mole fraction) (in m-xylene, 312.65 K): 0.117
solubility (mole fraction) (in m-xylene, 315.15 K): 0.129
solubility (mole fraction) (in m-xylene, 320.15 K): 0.154
solubility (mole fraction) (in m-xylene, 323.15 K): 0.173
solubility (mole fraction) (in m-xylene, 330.65 K): 0.22
solubility (mole fraction) (in m-xylene, 334.15 K): 0.246
solubility (mole fraction) (in m-xylene, 336.15 K): 0.257
solubility (mole fraction) (in n-octane, 313.15 K): 0.024
solubility (mole fraction) (in n-octane, 322.35 K): 0.033
solubility (mole fraction) (in n-octane, 325.15 K): 0.0365
solubility (mole fraction) (in n-octane, 329.15 K): 0.0448
solubility (mole fraction) (in n-octane, 334.15 K): 0.0578
solubility (mole fraction) (in n-octane, 338.35 K): 0.0718
solubility (mole fraction) (in n-octane, 342.65 K): 0.0865
solubility (mole fraction) (in n-octane, 345.15 K): 0.0955
solubility (mole fraction) (in n-octane, 348.15 K): 0.11
solubility (mole fraction) (in n-octane, 354.15 K): 0.134
solubility (mole fraction) (in o-xylene, 297.15 K): 0.0655
solubility (mole fraction) (in o-xylene, 300.15 K): 0.0735
solubility (mole fraction) (in o-xylene, 303.15 K): 0.0853
solubility (mole fraction) (in o-xylene, 308.65 K): 0.101
solubility (mole fraction) (in o-xylene, 311.15 K): 0.115
solubility (mole fraction) (in o-xylene, 316.15 K): 0.139
solubility (mole fraction) (in o-xylene, 321.15 K): 0.162
solubility (mole fraction) (in o-xylene, 325.15 K): 0.189
solubility (mole fraction) (in o-xylene, 332.15 K): 0.218
solubility (mole fraction) (in o-xylene, 334.15 K): 0.239
solubility (mole fraction) (in p-xylene, 295.15 K): 0.0628
solubility (mole fraction) (in p-xylene, 299.65 K): 0.0743
solubility (mole fraction) (in p-xylene, 302.15 K): 0.0819
solubility (mole fraction) (in p-xylene, 307.15 K): 0.0953
solubility (mole fraction) (in p-xylene, 311.45 K): 0.115
solubility (mole fraction) (in p-xylene, 320.65 K): 0.148
solubility (mole fraction) (in p-xylene, 323.15 K): 0.169
solubility (mole fraction) (in p-xylene, 326.95 K): 0.191
solubility (mole fraction) (in p-xylene, 331.15 K): 0.218
solubility (mole fraction) (in p-xylene, 335.15 K): 0.244
solubility (mole fraction) (in propionic acid, 291.15 K): 0.146
solubility (mole fraction) (in propionic acid, 294.65 K): 0.149
solubility (mole fraction) (in propionic acid, 300.15 K): 0.171
solubility (mole fraction) (in propionic acid, 304.45 K): 0.19
solubility (mole fraction) (in propionic acid, 308.15 K): 0.213
solubility (mole fraction) (in propionic acid, 314.15 K): 0.235
solubility (mole fraction) (in propionic acid, 317.15 K): 0.251
solubility (mole fraction) (in propionic acid, 322.15 K): 0.271
solubility (mole fraction) (in propionic acid, 325.15 K): 0.293
solubility (mole fraction) (in propionic acid, 330.15 K): 0.332
solubility (mole fraction) (in sulfolane, 305.15 K): 0.122
solubility (mole fraction) (in sulfolane, 312.15 K): 0.132
solubility (mole fraction) (in sulfolane, 314.15 K): 0.138
solubility (mole fraction) (in sulfolane, 318.65 K): 0.156
solubility (mole fraction) (in sulfolane, 325.15 K): 0.192
solubility (mole fraction) (in sulfolane, 329.15 K): 0.216
solubility (mole fraction) (in sulfolane, 333.65 K): 0.245
solubility (mole fraction) (in sulfolane, 338.15 K): 0.282
solubility (mole fraction) (in sulfolane, 343.15 K): 0.315
solubility (mole fraction) (in sulfolane, 345.15 K): 0.33
